“And” between values parts separate entries of the source, which are not always exact repeats. Equal values may be shown once. “Also recorded” adds a separate entry of the source. Read-outs that look alike come from different tables or passages of the source. Bridge positions count the residues as written; N and C are the ends.
Assays:
[1] = target: T1, α1β2γ2 GABAA receptor (Rattus norvegicus, UniProt P62813+P63138); type: cell-based; settings: 5 μM muscimol + 100 nM sMmTX1, n=3; control 48±5s
[2] = target: α1β2-containing receptor (Rattus norvegicus, UniProt P62813+P63138); type: cell-based; settings: 100 nM sMmTX1, −70 mV
[3] = target: T1, α1β2γ2 GABAA receptor; type: cell-based
[4] = tested on: hippocampal neurons; type: cell-based, mouse
[5] = tested on: mice; settings: injection into mouse brain
[6] = tested on: α1EKβ2γ2 receptor mutant; type: cell-based, rat
[7] = tested on: hippocampal neurons; experiment: Calcium imaging of hippocampal neurons (Ca^2+ oscillations); type: cell-based, rat

T1 sequence (P63138 25-474): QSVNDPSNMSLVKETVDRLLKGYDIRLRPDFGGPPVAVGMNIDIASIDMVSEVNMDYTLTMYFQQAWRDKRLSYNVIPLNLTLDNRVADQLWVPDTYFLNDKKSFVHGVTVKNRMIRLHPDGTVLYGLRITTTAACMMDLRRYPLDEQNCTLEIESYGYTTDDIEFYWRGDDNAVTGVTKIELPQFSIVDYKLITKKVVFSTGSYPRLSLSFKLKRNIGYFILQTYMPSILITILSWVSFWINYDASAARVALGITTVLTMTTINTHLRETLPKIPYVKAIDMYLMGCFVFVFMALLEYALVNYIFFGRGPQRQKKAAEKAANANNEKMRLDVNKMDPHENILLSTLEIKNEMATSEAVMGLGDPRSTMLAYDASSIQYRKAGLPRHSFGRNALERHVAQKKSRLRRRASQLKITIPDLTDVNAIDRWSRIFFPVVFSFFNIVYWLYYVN
T1 sequence (P62813 28-455): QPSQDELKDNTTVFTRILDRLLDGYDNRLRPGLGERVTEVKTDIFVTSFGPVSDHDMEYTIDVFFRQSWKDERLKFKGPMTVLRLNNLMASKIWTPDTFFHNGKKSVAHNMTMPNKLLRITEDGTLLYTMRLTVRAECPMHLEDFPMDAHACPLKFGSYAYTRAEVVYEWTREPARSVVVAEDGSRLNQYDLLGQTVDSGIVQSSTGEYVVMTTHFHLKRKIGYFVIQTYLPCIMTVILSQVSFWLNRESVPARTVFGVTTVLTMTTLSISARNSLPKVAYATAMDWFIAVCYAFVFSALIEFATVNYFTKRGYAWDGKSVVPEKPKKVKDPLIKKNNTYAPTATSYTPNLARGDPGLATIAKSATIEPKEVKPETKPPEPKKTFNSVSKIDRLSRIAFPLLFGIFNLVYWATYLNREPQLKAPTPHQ
T1 sequence (P18508 39-466, further chain): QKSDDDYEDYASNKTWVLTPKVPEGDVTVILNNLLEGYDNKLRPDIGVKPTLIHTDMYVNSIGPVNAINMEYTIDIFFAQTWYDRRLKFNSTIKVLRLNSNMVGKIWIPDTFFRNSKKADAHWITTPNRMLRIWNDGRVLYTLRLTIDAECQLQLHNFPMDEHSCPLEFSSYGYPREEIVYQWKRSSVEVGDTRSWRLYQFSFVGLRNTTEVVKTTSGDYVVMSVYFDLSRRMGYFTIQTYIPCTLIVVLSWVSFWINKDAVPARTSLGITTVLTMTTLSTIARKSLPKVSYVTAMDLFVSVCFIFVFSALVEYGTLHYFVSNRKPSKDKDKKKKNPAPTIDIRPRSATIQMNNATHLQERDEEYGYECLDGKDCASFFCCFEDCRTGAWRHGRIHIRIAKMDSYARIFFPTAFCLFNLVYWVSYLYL
Chain of α1β2-containing receptor (P63138 25-474): as the sequence (P63138 25-474) above
Chain of α1β2-containing receptor (P62813 28-455): as the sequence (P62813 28-455) above

**Q.** With “LTCKTCPFTTCPNSESCPGGQSICYQRKWEEHRGERIERRCVANCPAFGSHDTSLLCCTRDNCN (disulfide 3-24, 6-11, 17-41, 45-57, 58-63) [sMmTX1]” as the sequence, how does the “time constant of receptor desensitization” value [1] read?
**A.** Its value is 25 ± 3 s and 25 ± 2 s.

**Q.** And the “sensitivity of the receptor to toxin” value [2]?
**A.** The value was “sensitive”.

**Q.** And the “alteration of current elicited by 50 μM muscimol” value [3]?
**A.** The value was “not significantly altered”.

**Q.** And the “factor of current increase” value ([3]; 0.3 μM muscimol + 100 nM sMmTX1, n=5)?
**A.** Its value is 2.7±0.18.

**Q.** What about the “factor of current increase” value ([3]; 3 μM muscimol + 10 nM toxin) of the same sequence?
**A.** Its value is 1.28±0.12.

**Q.** And the “factor of current increase” value ([3]; 3 μM muscimol + 100 nM toxin)?
**A.** Its value is 1.33±0.13.

**Q.** What about the “effect on currents and desensitization” value ([3]; 3 μM muscimol + 300 nM sMmTX1, −70 mV) of the same sequence?
**A.** The value was “currents are potentiated and receptor desensitization tends to accelerate”.

**Q.** What about the “factor of current increase” value ([3]; 3 μM muscimol + 300 nM toxin) of the same sequence?
**A.** The value was 1.60±0.11.

**Q.** What about the “frequency of action potentials” value ([4]; 100 nM sMmTX1, current clamp, n=5) of the same sequence?
**A.** The value was “substantial increase; also recorded: significantly increased”.

**Q.** What about the “action potential amplitude and time-to-peak” value ([4]; 100 nM sMmTX1, n=5) of the same sequence?
**A.** Its value is “do not reveal a significant change”.

**Q.** And the “amplitude of mini inhibitory postsynaptic currents (mIPSCs)” value ([4]; 300 nM muscimol and 100 nM sMmTX1, with TTX, DNQX, APV, n=3)?
**A.** The value was “reduces the amplitude”.

**Q.** What about the “currents elicited by 30 ms puffs of 300 nM muscimol” value ([4]; continuous application of 100 nM sMmTX1) of the same sequence?
**A.** Its value is “induces a decrease”.

**Q.** And the “duration of burst-like postsynaptic currents” value ([4]; sMmTX1, voltage clamp, n=5)?
**A.** The value was “considerable increase”.

**Q.** And the LD50 [5]?
**A.** Its LD50 is 0.013 mg/kg.

**Q.** What about the behavioral signs [5] of the same sequence?
**A.** The behavioral signs was “identical mouse behavioral phenotype”.

**Q.** And the “effect on macroscopic conductance” value ([6]; 300 nM muscimol)?
**A.** Its value is “still reduces the macroscopic conductance”.

**Q.** What about the “effect on mutant receptor desensitization” value ([6]; 5 μM muscimol + 100 nM sMmTX1, n=4) of the same sequence?
**A.** Its value is “does not increase mutant receptor desensitization”.

**Q.** What about the “initial effect on Ca^2+ oscillations” value [7] of the same sequence?
**A.** Its value is “short but substantial inhibition”.

**Q.** And the “frequency of Ca^2+ spikes compared to cells perfused with extracellular saline solution” value ([7]; 100 nM sMmTX1 alone, n=9)?
**A.** The value was 105.8±4.0%.

Source: patent publication US20180009859A1, “PHARMACOLOGICAL MODULATORS OF GABAA RECEPTORS AND THEIR USE” (priority 2015, published 2018)
